Reference: the supplement of paper PMC5579334
± gives the standard deviation of the averaged measurements.

Assays:
S1507-2 [1] = assay: % inhibition of CellTiter-Glo viability at highest tested concentration (72 h), relative to DMSO and benzethonium chloride controls; higher = more inhibition
Outline: (§1)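 For this screen, 384-well plates were preprinted with each compound at five concentrations in 10-fold steps and seeded with MPNST cell lines or primary human Schwann cells at 750–1000 cells per well. Incubation lasted 72 h at 37 °C, 5% CO2, and CellTiter-Glo ATP luminescence, scaled between vehicle and positive-control wells and averaged over duplicates where available, served as viability. Logistic fits with four parameters were applied. Relative IC50 (censored at the top concentration) and drug sensitivity score derive from these fits, and percent inhibition is at the top concentration.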

HS-Sch-2 [2] = assay: as above
Outline: as §1

S462 [3] = assay: as above
Outline: as §1

HS-PSS [4] = assay: as above
Outline: as §1

ST8814 [5] = assay: as above
Outline: as §1

[6] = tested on: HSC1 (primary human Schwann cells); assay: as above
Outline: as §1

YST-1 [7] = assay: as above
Outline: as §1

[8] = tested on: HSC2 (primary human Schwann cells); assay: as above
Outline: as §1

STS26T [9] = assay: as above
Outline: as §1

S1507-2 [10] = assay: drug sensitivity score (DSS, CellTiter-Glo viability, 72 h) (DSS (dimensionless)); higher = more sensitive; extreme values may be limits of the assay
Outline: as §1

HS-Sch-2 [11] = assay: as above
Outline: as §1

S462 [12] = assay: as above
Outline: as §1

HS-PSS [13] = assay: as above
Outline: as §1

ST8814 [14] = assay: as above
Outline: as §1

[15] = tested on: HSC1 (primary human Schwann cells); assay: as above
Outline: as §1

YST-1 [16] = assay: as above
Outline: as §1

[17] = tested on: HSC2 (primary human Schwann cells); assay: as above
Outline: as §1

STS26T [18] = assay: as above
Outline: as §1

S1507-2 [19] = assay: drug sensitivity score (DSS, CellTox-Green cytotoxicity, 72 h) (DSS (dimensionless)); higher = more cytotoxic; extreme values may be limits of the assay
Outline: (§2)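 MPNST cell lines and primary human Schwann cells were grown for 72 h at 37 °C in 384-well plates containing five 10-fold compound dilutions. CellTox-Green, added before seeding at a final 1:1000 dilution, gave fluorescence from DNA released by disrupted cells, and signals were scaled to vehicle and positive-control wells. Curves were fitted with a four-parameter logistic model. Drug sensitivity score and relative IC50 come from these fits, with IC50 censored at the top concentration.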

HS-PSS [20] = assay: as above
Outline: as §2

ST8814 [21] = assay: as above
Outline: as §2

[22] = tested on: HSC1 (primary human Schwann cells); assay: as above
Outline: as §2

[23] = tested on: HSC2 (primary human Schwann cells); assay: as above
Outline: as §2

STS26T [24] = assay: as above
Outline: as §2

Row | Structure (SMILES) | % inhibition (S1507-2 [1]) | % inhibition (HS-Sch-2 [2]) | % inhibition (S462 [3]) | % inhibition (HS-PSS [4]) | % inhibition (ST8814 [5]) | % inhibition [6] | % inhibition (YST-1 [7]) | % inhibition [8] | % inhibition (STS26T [9]) | drug sensitivity score (S1507-2 [10]) | drug sensitivity score (HS-Sch-2 [11]) | drug sensitivity score (S462 [12]) | drug sensitivity score (HS-PSS [13]) | drug sensitivity score (ST8814 [14]) | drug sensitivity score [15] | drug sensitivity score (YST-1 [16]) | drug sensitivity score [17] | drug sensitivity score (STS26T [18]) | drug sensitivity score (S1507-2 [19]) | drug sensitivity score (HS-PSS [20]) | drug sensitivity score (ST8814 [21]) | drug sensitivity score [22] | drug sensitivity score [23] | drug sensitivity score (STS26T [24])
1 | Cn1cc(C2=C(c3cn(C4CCN(Cc5ccccn5)CC4)c4ccccc34)C(=O)NC2=O)c2ccccc21 [Enzastaurin] (max concentration tested 10000 nM) | 26.9 ± 3.6% | 12.3% | 10.8 ± 2.6% | 11.3% | 12.8% | 21.8% | -1.13% | 25.1% | 19.9% | 3.15 ± 2.5 | 0.28 | 0.0347 ± 0.049 | 3.43 | 0.0668 | 1.32 | 0 | 1.06 | 1.09 | 0 | 0 | 0 | 0 | 0 | 0.0176
2 | C#Cc1cccc(Nc2ncnc3cc(OCCOC)c(OCCOC)cc23)c1 [Erlotinib] (max concentration tested 10000 nM) | 26.3 ± 10% | 55.9% | 54.5 ± 2.7% | 48.6% | 31.1% | 73.1% | 56.7% | 74.7% | 33.2% | 1.85 ± 2 | 5.08 | 3.86 ± 0.29 | 3.63 | 1.41 | 5.2 | 5.25 | 5.39 | 2.29 | 0 | 0 | 0 | 0 | 0 | 0
3 | COc1cc([C@@H]2c3cc4c(cc3[C@@H](O[C@@H]3O[C@@H]5CO[C@@H](C)O[C@H]5[C@H](O)[C@H]3O)[C@H]3COC(=O)[C@H]23)OCO4)cc(OC)c1O [Etoposide] (max concentration tested 10000 nM) | 59.8 ± 1% | 79.1% | 90.4 ± 2.4% | 33% | 70.7% | 57.3% | 73.5% | 63.6% | 68% | 5.59 ± 0.81 | 8.86 | 11.55 ± 0.037 | 3.08 | 5.79 | 7.17 | 14.5 | 11.2 | 7.33 | 1.82 ± 2.4 | 0 | 3.52 | 2.21 | 3.62 | 5.16
4 | CO[C@H]1C[C@@H]2CC[C@@H](C)[C@@](O)(O2)C(=O)C(=O)N2CCCC[C@H]2C(=O)O[C@H]([C@H](C)C[C@@H]2CC[C@@H](OCCO)[C@H](OC)C2)CC(=O)[C@H](C)/C=C(\C)[C@@H](O)[C@@H](OC)C(=O)[C@H](C)C[C@H](C)/C=C/C=C/C=C/1C [Everolimus] (max concentration tested 100 nM) | 31 ± 1.7% | 18.4% | 29.4 ± 7.3% | 23.8% | 28.3% | 44.5% | 38.7% | 48.5% | 45.4% | 6.7 ± 1.1 | 3.17 | 8.44 ± 0.54 | 3.56 | 7.31 | 17.2 | 4.45 | 15.8 | 15.6 | 6.46 ± 9.1 | 0 | 0 | 0 | 0 | 0
5 | C=C1C[C@@H]2[C@H](CC[C@]3(C)C(=O)CC[C@@H]23)[C@@]2(C)C=CC(=O)C=C12 [Exemestane] (max concentration tested 10000 nM) | 12 ± 1.6% | 22.9% | 22.1 ± 2% | 26.7% | 5.32% | 3.19% | -11.7% | 6.18% | 9.39% | 0.225 ± 0.26 | 0.78 | 0.804 ± 0.28 | 1.87 | 0 | 0 | 0 | 0 | 0 | 0 | 0 | 0 | 0 | 0 | 0
6 | Cc1nc(C(=O)NCC(=O)O)c(O)c2ccc(Oc3ccccc3)cc12 [FG-4592] (max concentration tested 10000 nM) | -0.77 ± 1.2% | 74.7% | -7 ± 5.2% | 49% | 7.03% | 13.3% | -7.68% | 12.3% | 0.0946% | 0 | 5.13 | 0 | 5.17 | 0 | 0.0901 | 0 | 0.0248 | 0 | 0 | 0 | 0 | 0 | 0 | 0
7 | O=S(=O)(c1cccc2cnccc12)N1CCCNCC1 [Fasudil] (max concentration tested 50000 nM) | 30.5 ± 1.5% | 71.5% | 70.6 ± 9.4% | 45.6% | 22.3% | 27.6% | 51% | 31.8% | 58.9% | 1.02 ± 0.16 | 3.75 | 3.84 ± 0.63 | 1.83 | 0.609 | 1.41 | 2.59 | 1.36 | 2.86 | 0 | 0.2 | 0 | 0.888 | 0 | 0.899
8 | CC(C)(C)NC(=O)[C@H]1CC[C@H]2[C@@H]3CC[C@H]4NC(=O)C=C[C@]4(C)[C@H]3CC[C@]12C [Finasteride] (max concentration tested 10000 nM) | -1.69 ± 4.2% | 8.19% | 2.86 ± 8.6% | 4.42% | 6.23% | 0.189% | 2.29% | 0.769% | 9.35% | 0 | 0 | 0 | 0 | 0 | 0 | 0 | 0 | 0 | 0.774 ± 1.1 | 0 | 0 | 0 | 0 | 0
9 | CCCCCCCCc1ccc(CCC(N)(CO)CO)cc1 [Fingolimod] (max concentration tested 10000 nM) | 103 ± 2.5% | 101% | 101.6 ± 0.59% | 101% | 103% | 103% | 101% | 101% | 102% | 7.98 ± 1 | 6.87 | 5.79 ± 0.46 | 8.31 | 6.27 | 7.62 | 5.97 | 7.17 | 6.58 | 13.3 ± 9.3 | 5.38 | 5.09 | 8.13 | 7.44 | 4.94
10 | O=c1[nH]c(=O)n([C@H]2C[C@H](O)[C@@H](CO)O2)cc1F [Floxuridine] (max concentration tested 10000 nM) | 31.3 ± 10% | 84.7% | 84.1 ± 3.6% | 30.7% | 57.8% | 53.1% | 68.3% | 53.8% | 77.3% | 5.09 ± 3.2 | 17.9 | 22.4 ± 2.9 | 2.58 | 12.5 | 6.07 | 14.7 | 10.6 | 21.5 | 0 | 0 | 2.95 | 1.27 | 0.287 | 7.21
11 | Nc1nc(F)nc2c1ncn2[C@@H]1O[C@H](CO)[C@@H](O)[C@@H]1O [Fludarabine] (max concentration tested 10000 nM) | 17.2 ± 10% | 35% | 20 ± 11% | 24.9% | 1.25% | 27.8% | 69.7% | 48.6% | 31.6% | 0.851 ± 1.2 | 2.33 | 0.582 ± 0.72 | 2.18 | 0 | 0.98 | 3.5 | 2.94 | 2.39 | 0 | 0 | 0 | 0 | 0 | 0
12 | O=c1[nH]cc(F)c(=O)[nH]1 [Fluorouracil] (max concentration tested 10000 nM) | 11 ± 7.6% | 35% | 27.2 ± 7% | 29.4% | 4.62% | 43.5% | 25.5% | 55.5% | 53.4% | 0.493 ± 0.7 | 1.83 | 0.808 ± 0.45 | 1.09 | 0 | 1.94 | 0.94 | 2.86 | 6.56 | 0 | 0 | 0 | 0 | 0 | 0
13 | CC(C)C(=O)Nc1ccc([N+](=O)[O-])c(C(F)(F)F)c1 [Flutamide] (max concentration tested 10000 nM) | 4.01 ± 0.74% | -3.98% | 5.56 ± 0.56% | 10.5% | 4.3% | 9.44% | -0.22% | 5.2% | 9.3% | 0 | 0 | 0 | 0 | 0 | 0 | 0 | 0 | 0 | 0 | 0 | 0 | 0 | 0 | 0
